Molecules are shown by their SMILES.

Assay [1] deals with primary human T-cells. As to the kind of experiment: IL2 secretion measurements (24 h, CD3-stimulated T-cells, PBS counter screen). In kind it is cell-based. Particulars: for EC50: CD3-stimulated primary human T-cells, IL2 secretion, fitted sigmoidal curve, read-out: Tcell IL2 CD3 EC50; for Emax IL2 (% activation): CD3 condition, normalised to DMSO (neutral) and 20 μM reference compound A1 = 100%. On the procedure:
(§1) As readouts for T-cell activation, 1L2 secretion after 24 hours and proliferation after 5 days was measured. Increases in IL2 secretion and proliferation upon compound treatment were assessed as the % of the maximum of reference compound A1. WO 2016/139181 discloses reference compound A1 as example 70. As a counter screen and to make sure that no unwanted TCR-independent activation was triggered, PBS conditions were run for all compounds.
Expanded primary human T-cells were thawed and cultured in RPMI 1640 (Gibco, #61870-010)+5% human serum (HS, Sigma, #H3667)+1 mM Sodium Pyruvate (Gibco, #11360-039)+50 μM 2-mercaptoethanol (Gibco, #31350-010) and 1× Pen-Strep (Life Technologies, #15140122) medium at density of 2 Mio/ml for 3 hours in 5% CO2, 37° C. and 95% humidity. For coating of plates, […] or PBS++ with CD3 antibody (concentration depending on donor and determined by CD3 titrations) was added 100 μl/well to Poly-D Lysine coated 96-well plates. Plates were sealed and incubated at room temperature for 3 hours on a table-top rocking platform. After incubation, plates were washed once with PBS−− and filled with 40 μl/well culture medium only. Compounds were then added (see next section) to medium only plates. After 3 hours of culturing the T-cells, cells were filtered through a cell strainer (Miltenyi Biotech, #130-041-407), counted again and concentration was adjusted to 1.25 Mio/ml.
Cells were then seeded 80 μl/well to the 40 μl/well including dispensed compounds according to plate layout. By adding cells, compounds were further diluted 1:3, and resulting in 100 k cells/120 μl/well. After 24 hours 40 μl of supernatant was collected carefully from the top while not disturbing the cells and transferred into a round bottom 96 well plate. Collected and frozen supernatant was used for detection of IL2 using the IL-2 Human ProQuantum Immunoassay Kit (Invitrogen) or using the Human IL-2 ELISA Kit (Thermo Fisher).
(§2) Compounds were added in a 5 or 6 pt dose response with the Tecan D300e Digital Dispenser, all conditions 3 times more concentrated than the end-concentration, since cells are added afterwards (80 μl cells to 40 μl prepared medium with treatment). The DR was starting at 20 μM or 10 μM final top concentration and a dilution factor of 3.333. The positive control was the reference compound A1 that was added in a dose response as well, additionally to 3 wells of only 20 μM representing the positive stimulator control. All wells were normalized with DMSO to a final concentration of 0.6% (0.2% end-concentration).
The immunoassay is done following the manufacturer's manual (Invitrogen, #A35603). Additional information: For the immunoassay, MicroAmp™ EnduraPlate™ Optical 384-Well plates are used. Frozen supernatant is thawed and centrifuged for 5 minutes at 1000×g, both steps at 4° C. After centrifugation, required sample amount is taken from the top, and in a separate LightCycler V-bottom plate (working plate) diluted with assay dilution buffer, dilution factor depending on the PBS or CD3 condition but at least 1:3. IL-2 standard and blanks are prepared in the same V-bottom plate, standard with a range of 0.0128-5000 pg/ml (extended version). After preparation, 5 μl of sample dilutions or standard/blanks are transferred to the optical 384-well plate (assay plate) and the 10 μl reaction protocol is being followed. For measurement, the QuantStudio 12K Flex system is used. Raw data is extracted and IL-2 concentrations are calculated with the Thermo Fisher online app (apps.thermofisher.com/apps/proquantum).
ELISA is done following the manufacturer's manual (Thermo Fisher Scientific, #88-7025-88). Additional information: For the ELISA Nunc MaxiSorp 96 well plates are used. Frozen supernatant is thawed and centrifuged for 5 minutes at 1000×g, both steps at 4° C. […]
For orientation: The purpose of a counterscreen is to sort out artefacts and off-target activity.

Assay [2] deals with primary human T-cells. As to the kind of experiment: Proliferation assay (5 days, CellTiter-Glo, CD3-stimulated T-cells). In kind it is cell-based. As to conditions: for EC50: CD3-stimulated primary human T-cells, 5 days, CellTiter-Glo, fitted sigmoidal curve, read-out: Tcell Proliferation CD3 EC50; for Emax proliferation (% activation): CD3 condition, normalised to DMSO (neutral) and 20 μM reference compound A1 = 100%. Here is the method:
as §1
Expanded primary human T-cells are thawed and cultured in RPMI 1640 (Gibco, #61870-010)+5% human serum (HS, Sigma, #H3667)+1 mM Sodium Pyruvate (Gibco, #11360-039)+50 μM 2-mercaptoethanol (Gibco, #31350-010) and 1× Pen-Strep (Life Technologies, #15140122) medium at density of 2 Mio/ml for 3 hours in 5% CO2, 37° C. and 95% humidity. For coating of plates, PBS++ only or PBS++ with CD3 antibody (concentration depending on donor and determined by CD3 titrations) is added 100 μl/well to Poly-D Lysine coated 96-well plates. Plates are sealed and incubated at room temperature for 3 hours on a table-top rocking platform. After incubation, plates are washed once with PBS−− and filled with 40 μl/well culture medium only. Compounds are then added (see next section) to medium only plates. After 3 hours of culturing the T-cells, cells are filtered through a cell strainer (Miltenyi Biotech, #130-041-407), counted again and concentration is adjusted to 1.25 Mio/ml.
Cells are then seeded 80 μl/well to the 40 μl/well including dispensed compounds according to plate layout. By adding cells, compounds are further diluted 1:3, and resulting in 100 k cells/120 μl/well. After 48 hours 40 μl of supernatant is collected carefully from the top while not disturbing the cells. Cells are assessed for proliferation 5 days later by measuring […] using CellTiterGlo (Promega).
as §2
After 5 days, for detection of ATP which is directly proportional to the number of cells present per well, the CellTiter-Glo® 2.0 Reagent is used. After visual control for toxicity or precipitations of the tested compounds, the plates are equilibrated to room temperature for 45 minutes. CellTiter-Glo® 2.0 Reagent is equilibrated to room temperature as well. After equilibration, an equal amount of CellTiter-Glo reagent is added to the cells (80 μl/well) with an electronic multichannel pipette. Plates are placed on a rocking platform for 15 minutes at room temperature. After incubation, the bottom of the plates is sealed with backing tape. Luminescence is measured with PHERAstar FSX (interval time 0.5 sec, gain 3000, focal height 15 mm) and exported as CSV file for analysis in Genedata screener.
CD3 and PBS plates were analysed separately in Genedata Screener using Roche Normalization PCT_POS_CTRL with DMSO set as Neutral Control and 20 μM of the reference compound A1 set as Stimulator Control/100%.
For CD3 conditions EC50 and Emax of the fitted sigmoidal curve were reported. If no curve could be fitted, the EC50 was reported as blank field and the Emax was based on individual data points. […] Compounds which activate unstimulated cells (see IL2 measurements) or compounds which negatively affected viability were flagged.
For orientation: ATP-based viability assays read luminescence as a measure of living cells.

As for `COC(=O)N1CC2CC(c3nnc(-c4ccc5c(c4)N(Cc4ccc(-c6noc(C(F)(F)F)n6)cc4)C(=O)[C@@H](N)CS5(=O)=O)o3)(C2)C1` [Example 61, methyl 1-[5-[(3R)-3-amino-1,1,4-trioxo-5-[[4-[5-(trifluoromethyl)-1,2,4-oxadiazol-3-yl]phenyl]methyl]-2,3-dihydro-1λ^6,5-benzothiazepin-7-yl]-1,3,4-oxadiazol-2-yl]-3-azabicyclo[3.1.1]heptane-3-carboxylate], in the assay on primary human T-cells [1], the EC50 came out at 606 nM and the “Emax IL2 (% activation)” value came out at 241 % activation. In addition, in the assay on primary human T-cells [2], the EC50 worked out at 216 nM and the “Emax proliferation (% activation)” value stood at 228 % activation.

`COC(F)(c1nnc(-c2ccc3c(c2)N(Cc2ccc(-c4nnc(C(F)(F)F)o4)cc2)C(=O)[C@@H](N)CS3(=O)=O)o1)C(F)(F)F` (stereo partly drawn) [Example 67, (3R)-3-amino-1,1-dioxo-7-[5-(1,2,2,2-tetrafluoro-1-methoxy-ethyl)-1,3,4-oxadiazol-2-yl]-5-[[4-[5-(trifluoromethyl)-1,3,4-oxadiazol-2-yl]phenyl]methyl]-2,3-dihydro-1λ^6,5-benzothiazepin-4-one]: in the assay on primary human T-cells [1], the “Emax IL2 (% activation)” value worked out at 168 % activation. For the same compound, the EC50 came out at 739 nM with primary human T-cells [1] (Homo sapiens, T-cell) and 262 nM in the assay with primary human T-cells [2] (Homo sapiens, T-cell, 120 h). Also, in the assay with primary human T-cells [2], the “Emax proliferation (% activation)” value was found to be 119 % activation.

With `N[C@H]1CS(=O)(=O)c2ccc(-c3nnc(N4CCC(F)(F)CC4)o3)cc2N(Cc2ccc(-c3noc(C4CC4)n3)cc2)C1=O` [Example 69, (3R)-3-amino-5-[[4-(5-cyclopropyl-1,2,4-oxadiazol-3-yl)phenyl]methyl]-7-[5-(4,4-difluoro-1-piperidyl)-1,3,4-oxadiazol-2-yl]-1,1-dioxo-2,3-dihydro-1λ^6,5-benzothiazepin-4-one], the “Emax IL2 (% activation)” value in the assay with primary human T-cells [1] was determined as 83 % activation. The EC50 came out at 448 nM with primary human T-cells [1] (Homo sapiens, T-cell) and 409 nM in the assay on primary human T-cells [2] (Homo sapiens, T-cell, 120 h). The “Emax proliferation (% activation)” value with primary human T-cells [2] was determined as 125 % activation.

As to `N[C@H]1CS(=O)(=O)c2ccc(-c3nnc(N4CCC(F)(F)CC4)o3)cc2N(Cc2ccc(-c3nnc(C(F)F)o3)cc2)C1=O` [Example 70, (3R)-3-amino-5-[[4-[5-(difluoromethyl)-1,3,4-oxadiazol-2-yl]phenyl]methyl]-7-[5-(4,4-difluoro-1-piperidyl)-1,3,4-oxadiazol-2-yl]-1,1-dioxo-2,3-dihydro-1λ^6,5-benzothiazepin-4-one], the “Emax IL2 (% activation)” value in the assay with primary human T-cells [1] amounted to 43 % activation. Moreover, the EC50 with primary human T-cells [1] (Homo sapiens, T-cell) is above 10000 nM; in the assay on primary human T-cells [2] (Homo sapiens, T-cell, 120 h), 2760 nM. In the assay with primary human T-cells [2], the “Emax proliferation (% activation)” value came out at 76 % activation.

Regarding `N[C@H]1CS(=O)(=O)c2ccc(-c3nnc(N4CCOC(F)(F)C4)o3)cc2N(Cc2ccc(-c3nnc(C(F)F)o3)cc2)C1=O` [Example 82, (3R)-3-amino-5-[[4-[5-(difluoromethyl)-1,3,4-oxadiazol-2-yl]phenyl]methyl]-7-[5-(2,2-difluoromorpholin-4-yl)-1,3,4-oxadiazol-2-yl]-1,1-dioxo-2,3-dihydro-1λ^6,5-benzothiazepin-4-one], the “Emax IL2 (% activation)” value with primary human T-cells [1] worked out at 25 % activation. The EC50 with primary human T-cells [1] (Homo sapiens, T-cell) is above 10000 nM; in the assay on primary human T-cells [2] (Homo sapiens, T-cell, 120 h), 6120 nM. In addition, the “Emax proliferation (% activation)” value in the assay on primary human T-cells [2] is recorded as 78 % activation.

For the compound `NC(c1nnc(-c2ccc3c(c2)N(Cc2ccc(-c4ccc(C(F)(F)F)cc4)cc2)C(=O)[C@@H](N)CS3(=O)=O)o1)C(F)(F)F` (stereo partly drawn) [Example 151, (3R)-3-amino-7-[5-(1-amino-2,2,2-trifluoro-ethyl)-1,3,4-oxadiazol-2-yl]-1,1-dioxo-5-[4-[4-(trifluoromethyl)phenyl]phenyl] methyl 1-2,3-dihydro-1λ^6,5-benzothiazepin-4-one], the “Emax IL2 (% activation)” value in the assay on primary human T-cells [1] came to 65 % activation. Besides, the EC50 in the assay on primary human T-cells [1] (Homo sapiens, T-cell) was 903 nM; in the assay on primary human T-cells [2] (Homo sapiens, T-cell, 120 h), 1850 nM. Besides, in the assay with primary human T-cells [2], the “Emax proliferation (% activation)” value is 105 % activation.
